Legend:
[1] = tested on: various human cellular systems; conditions: Manna et al., 2000; cited from earlier work
[2] = tested on: low density lipoprotein (LDL) oxidation; conditions: Visioli and Galli, 1998; cited from earlier work
12-lipoxygenase = conditions: de la Puerta et al., 1999; Kohyama et al., 1997; cited from earlier work
5-lipoxygenase = conditions: de la Puerta et al., 1999; Kohyama et al., 1997; cited from earlier work
platelet aggregation = conditions: Petroni et al., 1995; cited from earlier work
[3] = humans; Visioli et al., 2000; cited from earlier work
[4] = tested on: peroxynitrite dependent DNA base modification and tyrosine nitration; conditions: Deiana et al., 1999; cited from earlier work
erythema nodosum = assay: Example 1: patient with erythema nodosum treated with vegetation water composition tablets; assay type: in vivo, human; conditions: 5 mg predonine for nearly 2.3 years
Protocol: In studies conducted in support of the invention, compositions comprised of the vegetation water composition were prepared and administered to test subjects, as set forth in Examples 1-6. Briefly, the pitted pulp of olives was masticated and pressed to produce a liquid-phase mixture and solid by-products. The solid by-products were separated and removed from the liquid-phase mixture by filtration and centrifugation. The liquid-phase mixture was allowed to rest to allow the oil and aqueous fractions to segregate. The aqueous phase was decanted and acidified with citric acid to adjust the pH between 2 and 4. The acidified aqueous fraction was concentrated by distillation under vacuum and dried by spray drying or oven drying under vacuum to obtain a powder, which was used to prepare the tablets as used in Examples 1-6. Each tablet contained 90 mg of olive pulp solids, 5.4 mg of total polyphenols, and ˜2.5 mg of hydroxytyrosol.
In another embodiment, the compositions of the invention are suitable for treating erythema nodosum. Erythema nodosum is an inflammatory condition characterized by tender, red bumps, and is usually found on the shins, but may also occur on other areas of the body such as the buttocks, calves, ankles, thighs, and upper extremities. Quite often, erythema nodosum is not a separate disease, but, rather, a sign of some other disease, or of sensitivity to a drug. […]

OCCc1ccc(O)c(O)c1 [hydroxytyrosol, 3,4-dihydroxyphenethyl alcohol]
cytotoxicity induced by reactive oxygen species [1]: counteracts
LDL oxidation [2]: prevents
inhibition of 12-lipoxygenase (12-lipoxygenase): inhibits
inhibition of 5-lipoxygenase (5-lipoxygenase): inhibits
platelet aggregation (platelet aggregation): prevents
absorption following ingestion [3]: dose-dependently absorbed
peroxynitrite dependent DNA base modification and tyrosine nitration [4]: inhibitory effect

C[C@]12C=CC(=O)C=C1CC[C@@H]1[C@@H]2[C@@H](O)C[C@@]2(C)[C@H]1CC[C@]2(O)C(=O)CO [predonine]
erythema nodosum lesions, prior treatment (erythema nodosum): little resolution
